Where two headings read alike, the source gives them in different places.
What was measured:
[1] = Hygroscopicity (weight gain in 90% humidity); assay type: physicochemical; conditions: 140 hr
Protocol: Tribasic zinc sulfate can be prepared in a reaction system depicted in FIG. 1. Initially the reactor vessel contained 100 ml of dionized water.
Initially the reactor vessel contained 100 ml of an aqueous solution of ammonium sulfate (400 g/l).

[2] = 98 ° F., about 3 months, 131400 min, cited from earlier work
[3] = Chick feeding trial: feed intake, body weight, bone ash; assay type: in vivo; conditions: chicks fed 3 weeks
Protocol: Feed intake was recorded per pen.
Relative bioavailability estimates were calculated using slope ratios.

[4] = in vivo
Protocol: Chicks were fed the respective basal diets for 21 days. There were six pens each containing six chicks (three male and three female) for each of eight dietary treatments, for a total of 288 birds. Chicks were housed in two Petersime brooder units with stainless steel fittings and maintained on a 24-hour constant light schedule. Tap water containing no detectable zinc and feed were available ad libitum. Feed intake was recorded per pen. At the end of the experiment, birds were weighed individually, killed by cervical dislocation, and right tibia removed and frozen individually for zinc analysis.
Zinc concentrations in basal diet, water, zinc sources, and tibias were determined by flame atomic absorption spectrophotometry (Model 5000 with an AS-50 autosampler, Perkin-Elmer, Norwalk Conn. 06859-0156, Anonymous, 1982. Analytical Methods for Atomic Absorption Spectrophotometry. Perkin-Elmer Corp., Norwalk, Conn.). Diet samples were dried at 105° C. for 12 hours, then were dry ashed at 550° C. for 12 hours, solubilized in HCl, and filtered through 42 Whatman paper. Bones were boiled for approximately 10 minutes in deionized water and cleaned of all soft tissue. Tibias with associated cartilages were dried for 12 hours at 105° C., extracted in a Soxhlet apparatus with petroleum ether for 48 hours prior to ashing, and then solubilized as indicated above. Water was concentrated 10-fold by evaporation on a hotplate. Zinc sources were refluxed for 4 hours in 1:1 (v:v) concentrated HCl--HNO3 and filtered through 42 Whatman paper. Standards were matched for macroelement and acid concentrations as needed.
Data were analyzed by two-way ANOVA with a model that included zinc source, dietary zinc concentration, and their interaction. Each of the six pens were used as experimental units. Body weight, feed intake, and percentage of bone ash were also analyzed by the General Linear Models (GLM) (SAS Institute, 1990. SAS/STAT User's Guide (Release 6.04) SAS Institute Inc., Cary, N.C.) with an LSMEANS statement and PDIFF option to compare treatment means. Multiple linear regression of bone zinc concentration on added dietary zinc concentration was calculated using GLM. Relative bioavailability estimates were calculated using slope ratios.

Water solubility = assay type: physicochemical
[5] = Sandoval et al. (1997), similar sample, cited from earlier work
E. coli = test: Effect of zinc compounds on bacteria (colony count); assay type: cell-based, DMV strain; conditions: each of the bacteria tested
Protocol: (§1) A series of 42 test tubes were filled with 7 ml of distilled water, and the pH of the water was adjusted to a pH of 7. Fourteen tubes were selected, and 1 ml of an aqueous stock solution containing DMV (DelMarVa-Delaware, Maryland, Virginia source) strain of E. coli was added to each of the 14 tubes. A second set of 14 tubes was selected. To each tube in this second set was added 1 ml stock solution containing a DMV strain of salmonella. A third set of 14 tubes was then selected, and to each these tubes was added 1 ml of a stock solution containing a DMV strain of camplobacter.
(§2) Two tubes from each of the three sets served as controls, and no zinc compounds were added to these controls. […] The pH of half of the tubes from each set was adjusted to a pH of 2 by the addition of concentrated HCl; the pH of the other half of the tubes was maintained at a pH of 7. Sufficient water was added to each tube to provide a final volume of 10 ml. All the tubes were placed in an incubator that was maintained at 37° C. for three hours.
(§3) After three hours, 0.20 ml was taken from each of the tubes, of which 0.1 ml was used to inoculate a MacConley Ager plate and 0.1 ml was used to inoculate a Blood Ager plate. […] After 24 hours, each late was examined and the number of colonies on each plate was evaluated.

Salmonella = test: as above; assay type: cell-based, DMV strain; conditions: each of the bacteria tested
Protocol: as §1, §2, §3

Camplobacter = test: as above; assay type: cell-based, DMV strain; conditions: each of the bacteria tested

Compound `O.O.O.O.O.O=S(=O)([O-])[O-].[Cu+2]` [copper sulfate pentahydrate] has a Hygroscopicity [1] of 14.4 % weight gain.

For `Cc1ncc(CO)c(CO)c1O` [pyridoxine], the “Loss of pyridoxine activity” value ([2]; multi-vitamin premixes containing inorganic trace minerals) is listed as “about 55%” and the “Loss of pyridoxine activity” value ([2]; premix containing no trace minerals) is listed as “about 24%”.

`[Cl-].[Cl-].[Zn+2]` [reagent grade zinc chloride, zinc chloride] showed a Hygroscopicity [1] of 126.5 % weight gain.

In the case of `O.O.O.O.O.O.O.O=S(=O)([O-])[O-].[Zn+2]` [reagent grade zinc sulfate, zinc sulfate heptahydrate, reference compound], the “Body Weight” value ([3]; added Zn 200 ppm) is reported as 574 g, the “Bone Ash” value ([3]; added Zn 200 ppm) is reported as 44.2 ash wt % and the “Feed Intake” value ([3]; added Zn 200 ppm) is reported as 710 g/bird. The “Body Weight” value ([3]; added Zn 400 ppm) was 559 g, the “Bone Ash” value ([3]; added Zn 400 ppm) was 42.8 ash wt % and the “Feed Intake” value ([3]; added Zn 400 ppm) was 679 g/bird. The Hygroscopicity [1] was 36.1 % weight gain and the “Slope ± SE (regression of bone zinc concentration on added dietary zinc concentration)” value (“Slope ± SE” for short) [4] was 0.1193 ± 0.0316.

In the case of `O=S(=O)([O-])[O-].[Cu+2].[Cu+2].[Cu+2].[Cu+2].[OH-].[OH-].[OH-].[OH-].[OH-].[OH-]` [tribasic copper sulfate], the Water solubility (Water solubility) is reported as “about 430 mg Cu per liter” and the Hygroscopicity [1] is reported as “about 1.73 % weight gain”.

In the case of `[O]=[Zn]` [zinc oxide], the “Body Weight” value ([3]; added Zn 400 ppm) is reported as 588 g, the “Bone Ash” value ([3]; added Zn 400 ppm) is reported as 44.4 ash wt % and the “Feed Intake” value ([3]; added Zn 400 ppm) is reported as 709 g/bird. For the same compound, the “Relative bioavailability value (slope ratio)” value ([4]; chicken, 30240 min) was 49.0±10.1%, the “Relative value ± SE (slope ratio of bone zinc regression)” value ([4]; chicken, 30240 min) was 49.0 ± 10.1 and the “95% Confidence Interval of relative value” [4] was 28.7-69.2. For the same compound, the “Bioavailability of zinc (in words)” value [4] was “lower (P<0.05) than that for other sources”, the “Slope ± SE” value [4] was 0.0584 ± 0.0309 and the “Solubility in HCl” value ([5]; 60 min) was 99%. The “Solubility in citric acid” value ([5]; 60 min) was 69%, the “Solubility in neutral ammonium citrate” value ([5]; 60 min) was 53% and the Solubility in water [5] was “insoluble”.

With basic zinc chloride the “Body Weight” value ([3]; added Zn 200 ppm) was 592 g, the “Bone Ash” value ([3]; added Zn 200 ppm) was 45.1 ash wt % and the “Feed Intake” value ([3]; added Zn 200 ppm) was 724 g/bird. For the same compound, the “Body Weight” value ([3]; added Zn 400 ppm) was 563 g, the “Bone Ash” value ([3]; added Zn 400 ppm) was 43.6 ash wt % and the “Feed Intake” value ([3]; added Zn 400 ppm) was 652 g/bird. For the same compound, the “Bioavailability of zinc (in words)” value [4] was “equal to that of reagent grade zinc sulfate” and the “Slope ± SE” value [4] was 0.1273 ± 0.0316.

In the case of basic zinc sulfate, the “Body Weight” value ([3]; added Zn 200 ppm) is reported as 585 g, the “Bone Ash” value ([3]; added Zn 200 ppm) is reported as 44.4 ash wt % and the “Feed Intake” value ([3]; added Zn 200 ppm) is reported as 690 g/bird. The “Body Weight” value ([3]; added Zn 400 ppm) was 599 g, the “Bone Ash” value ([3]; added Zn 400 ppm) was 44.5 ash wt % and the “Feed Intake” value ([3]; added Zn 400 ppm) was 708 g/bird. The “Bioavailability of zinc (in words)” value [4] was “equal to that of reagent grade zinc sulfate” and the “Slope ± SE” value [4] was 0.1200 ± 0.0316.

For tribasic zinc chloride, the “Growth rate of bacteria (in words)” value (E. coli) was “significantly reduced the growth rate”, the “Growth rate of bacteria (in words)” value (Salmonella) was “significantly reduced the growth rate” and the “Growth rate of bacteria (in words)” value (Camplobacter) was “significantly reduced the growth rate”.

For tribasic zinc sulfate, the Water solubility (Water solubility) was “about 15 mg zinc per liter” and the Hygroscopicity [1] was “about 4.65 % weight gain”.

From US6265438A, “Vitamin compatible micronutrient supplement” (Heritage Technologies, LLC, priority 1999, dated 2001)
